Experiments:
[1] = test system: MCF-7 breast cancer cells; experiment: MTT proliferation/survival (cytotoxicity) assay, MCF-7; type: cell-based
From the text: FIG. 1. Concentration- and time-dependent cell proliferation/survival inhibition by 2,3-dihydrowithaferin A-3β-O-sulfate (WA-SO4) and withaferin A (WA). MCF-7 breast cancer cells were exposed to the indicated concentrations of compounds and relative viable cell number determined by dye reduction assay after the time intervals noted. Data are representative of three independent experiments.
(§1) A standard tetrazolium dye [3-(4,5-di-methylthiazol-2-yl)-2,5-diphenyltetrazoliumbromide; MTT]-based colorimetric assay was used to measure the proliferation/survival of cells in triplicate wells using a 96-well plate-based format. […] Cells were exposed continuously to test compounds for 24 or 72 h at which times related viable cell number per well was determined as previously described (Wijeratne, et al., J Nat. Prod. (2003) 66: 1567-1573, incorporated herein by reference).

[2] = test system: NCI-H460 (non small cell lung); experiment: Proliferation/survival assay, NCI-H460; type: cell-based; conditions: same time dependence as in MCF-7
Protocol: as §1

[3] = test system: PC-3M (metastatic prostate cancer); experiment: Proliferation/survival assay, PC-3M; type: cell-based; conditions: same time dependence as in MCF-7
Protocol: as §1

[4] = Conversion of 2,3-dihydrowithaferin A-3β-O-sulfate to withaferin A in cell culture media (HPLC); type: physicochemical; conditions: DMEM + 10% fetal bovine serum, 37° C., 4, 16, 24 h, FIG. 2
Protocol: FIGS. 2A and 2B. Conversion of 2,3-dihydrowithaferin A-3β-O-sulfate (solid circles) to withaferin A (solid squares) in cell culture medium. (A) Incubation of 2,3-dihydrowithaferin A-3β-O-sulfate in DMEM supplemented with 10% fetal bovine serum. (B) Incubation in cysteine/methionine-free DMEM supplemented with 10% fetal bovine serum. The concentration of 2,3-dihydrowithaferin A-3β-O-sulfate (solid circles) and its conversion to withaferin A (solid squares) was measured over time by HPLC using an external standard curve method.
Stock solutions of 2,3-dihydrowithaferin A-3β-O-sulfate in DMSO (50 μL) were diluted into cell culture medium (950 μL) to achieve the indicated starting concentration, mixed thoroughly and the solution incubated in a CO2 incubator at 37° C. Aliquots (100 μL) were withdrawn at 4, 16, and 24 h and subjected to HPLC analysis for 2,3-dihydrowithaferin A-3β-O-sulfate (RRT=18.5 min) and withaferin A (RRT=23.5 min) on a Kromasil C18 RP column (250×4.6 mm, […]) with gradient elution using 40-100% aqueous MeOH and using an ELSD detector. An external standard curve method was used to calculate the concentration of each compound in the sampled aliquots (Khajuria, et al., J Sep. Sci. (2004) 27: 541-546, incorporated herein by reference).

WI-38 fibroblasts = experiment: Detection of F-actin aggregation (phalloidin staining); type: cell-based, Human; conditions: 4 μM, 4 or 24 h, FIG. 3
Protocol: FIGS. 3A-3D. Induction of F-actin aggregation. Following incubation with test compounds for the indicated intervals, WI-38 fibroblasts were fixed and stained with fluorescently-labeled phalloidin (green signal) to visualize the actin cytoskeleton. Cells were counterstained with DAPI (blue signal) to identify their nuclei. All images were acquired using the same magnification and exposure conditions. Data are representative of two independent experiments. (A) DMSO, 24 h incubation. (B) Withaferin A, 4 h. (C) 2,3-Dihydrowithaferin A-3β-O-sulfate, 4 h. (D) 2,3-Dihydrowithaferin A-3β-O-sulfate, 24 h.
Cells were seeded in 8-well chamber slides at a density of 2×10^4 cells per well and allowed to adhere for 48 h. Compounds 1 and 2 were freshly prepared as 5 mM stock solutions in DMSO and applied to cells at a final concentration of 4 μM in RPMI culture medium supplemented with 10% fetal bovine serum, Glutamax™, and penicillin/streptomycin. Control wells were treated with an equal volume of DMSO, not exceeding 0.2% in culture media. Cells were incubated for 4 or 24 h in the continuous presence of the indicated compounds, then washed twice with PBS, fixed with 4% paraformaldehyde/PBS (pH 7.6), and permabilized with 0.1% triton-X 100/PBS. […]

[5] = test system: minimal heat shock response element derived from the promoter region of the Hsp70B gene; experiment: Heat shock reporter (EGFP) induction; type: cell-based; conditions: overnight exposure, FIG. 8
Protocol: FIG. 8. Heat shock reporter induction measured by micro plate fluorimeter. Reporter cells stably transduced with a plasmid encoding enhanced green fluorescent protein (EGFP) under the control of a minimal heat shock response element were exposed to 2,3-dihydrowithaferin A-3β-O-sulfate (WA-SO4) or withaferin A (WA) at the indicated concentrations overnight. Relative fluorescence units (RFU) per well were determined as a measure of reporter activation. Each point represents the mean of nine determinations from three independent experiments.
Immortalized mouse embryo fibroblasts derived from homozygous Hsf1 knockout mice or their wild type littermates were exposed overnight to equitoxic concentrations of 1 or the known heat shock-inducing Hsp90 inhibitor gendanamycin. Whole cell lysates were prepared in non-ionic detergent buffer and immunoblotted for relative levels of Hsp72, a highly inducible member of the Hsp70 family of molecular chaperones, using monoclonal antibody C92F3A-5 (StressMarq Biosciences, Victoria, BC). Reactivity was detected using peroxidase-conjugated secondary antibody and chemiluminescent detection. To evaluate the relative ability of compounds to induce a heat shock response at the transcriptional level, a reporter cell line was used as previously described (Turbyville, et al., J. Nat. Prod. (2006) 69: 178-184, incorporated herein by reference). […]

[6] = test system: Human umbilical vein endothelial cells (HUVEC); experiment: Endothelial cell network (tube) formation on Matrigel; type: cell-based; conditions: 16 h, FIG. 6
Protocol: FIG. 6. […] Human umbilical vein endothelial cells (HUVEC) were seeded into Matrigel-coated wells and allowed to adhere for 1 h. Adherent cells were exposed to the indicated concentrations of withaferin A, epi-withaferin A (α-WA) or an equal volume of solvent vehicle (DMSO) for 16 h. Cells were washed 1× in PBS and fixed to visualize tube formation by light microscopy.

[7] = test system: Ewing's sarcoma cells (CHP-100); conditions: 72 hours, MTT, FIG. 5
From the text: Relative viable cell number was quantified by MTT assay. Results are presented as a percentage compared to wells exposed to DMSO alone. […] Points: mean of triplicate determinations; Error bars: s.d.

CC1=C(CO)C(=O)OC(C(C)C2CC[C@H]3[C@@H]4C[C@H]5O[C@]56[C@@H](O)[C@@H](OS(=O)(=O)O)CC(=O)[C@]6(C)[C@H]4CC[C@]23C)C1 (stereo partly drawn) [2,3-dihydrowithaferin A-3β-O-sulfate]
potency compared with withaferin A, MCF-7 ([1]; after ca. 72 hours): equipotent with withaferin A
inhibition of the proliferation/survival of MCF-7 breast cancer cells ([1]; dye reduction (MTT) assay, 24 or 72 h, FIG. 1): concentration- and time-dependent inhibition
proliferation/survival inhibition compared with withaferin A, NCI-H460 [2]: same results
proliferation/survival inhibition compared with withaferin A, PC-3M [3]: same results
conversion to withaferin A in cell culture media [4]: conversion of dihydrowithaferin A-3β-O-sulfate to withaferin A in cell culture media
induction of F-actin aggregation (WI-38 fibroblasts): induced F-actin aggregation, but dihydrowithaferin A-3β-O-sulfate required a longer period of time
heat shock reporter induction [5]: induces a robust heat shock response after overnight treatment of cells, albeit at higher concentrations than that of withaferin A

CC1=C(CO)C(=O)OC([C@@H](C)C2CCC3C4C[C@H]5O[C@]56[C@H](O)C=CC(=O)[C@]6(C)C4CC[C@@]32C)C1 (stereo partly drawn) [epi-withaferin A]
inhibition of endothelial cell network formation [6]: Inhibition of endothelial cell network formation
inhibition of tumor cell growth in vitro, CHP-100 [7]: Concentration-dependent inhibition of tumor cell growth in vitro
